Measurements as given in patent publication US20130331378A1, “PYRAZOLOPYRIDINE DERIVATIVE OR PHARMACOLOGICALLY ACCEPTABLE SALT THEREOF” (KISSEI PHARMACEUTICAL CO., LTD., priority 2011, published 2013).
pIC50: −log10 of the molar value.

target: T1, rat EP1 receptor (Rattus norvegicus, UniProt P70597); test: Test for confirming EP1 receptor antagonistic effect: suppression of prostaglandin E2-induced rise in intracellular calcium concentration; assay type: cell-based; conditions: rat EP1 receptor-expressing COS-1 cells; prostaglandin E2 10 nM; Fluo 4-AM fluorescent signal; test compound 0.1 nM to 10 μM
T1 construct: expressed in transfected cells
T1 sequence (P70597 1-405): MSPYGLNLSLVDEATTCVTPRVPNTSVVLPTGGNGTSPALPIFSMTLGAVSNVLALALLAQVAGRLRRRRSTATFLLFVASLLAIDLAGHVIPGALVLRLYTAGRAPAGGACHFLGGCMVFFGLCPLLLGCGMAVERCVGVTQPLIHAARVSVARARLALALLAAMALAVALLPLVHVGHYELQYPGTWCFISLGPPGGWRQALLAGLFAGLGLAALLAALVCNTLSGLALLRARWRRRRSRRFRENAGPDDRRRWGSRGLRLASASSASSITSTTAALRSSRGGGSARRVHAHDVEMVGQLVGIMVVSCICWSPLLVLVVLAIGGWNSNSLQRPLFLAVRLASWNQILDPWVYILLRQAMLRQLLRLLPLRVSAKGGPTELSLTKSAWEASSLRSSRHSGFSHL
Method: (1) Preparation of Rat EP1 Expression Vector
The first PCR was performed with Rat Kidney BD Marathon-Ready cDNA (Nippon Becton Dickinson Co., Ltd.) as a template using a forward primer represented by SEQ ID NO: 1 and a reverse primer represented by SEQ ID NO: 2 and using KOD-Plus-Ver 2.0 (Toyobo Co., Ltd.). The second PCR was further performed in a similar manner with this amplification product as a template using a forward primer represented by SEQ ID NO: 3 and a reverse primer represented by SEQ ID NO: 4. The amplification product obtained by the second PCR was incorporated into a vector (pcDNA3.1 D/V5-His-TOPO (registered trademark), Invitrogen Corporation). This vector with the incorporated amplification product was introduced to E. coli (One Shot TOP10 Competent Cell, Invitrogen Corporation) by a conventional method to perform transformation. This transformed E. coli was cultured for 1 day in an LB agar medium. After the culture, colonies were selected and cultured in an LB liquid medium containing 50 μg/mL of ampicillin. After the culture, the vector was purified using QIAprep Spin Miniprep Kit (Qiagen Corporation). The base sequence (SEQ ID NO: 5) of the inserted site in this vector was compared with the base sequence (Ptger1) of rat EP1 registered under Accession No. NM_013100 in a heretofore known database (NCBI) and consequently was completely identical except for 1 base. Moreover, an amino acid sequence translated from this base sequence was completely identical to the amino acid sequence of the rat EP1 receptor registered under Accession No. NP_037232 in NCBI. Thus, it was confirmed that the cloned gene sequence was the base sequence of the rat EP1 receptor and the obtained amino acid sequence was the rat EP1 receptor. The pcDNA3.1 D/V5-His-TOPO (registered trademark) in which the nucleic acid represented by SEQ ID NO: 5 was inserted was used as a rat EP1 expression vector.
(2) Preparation of Rat EP1 Receptor-Expressing Cell
COS-1 cells (Dainippon Sumitomo Pharma Co., Ltd.) were cultured at 37° C. in an incubator under 5% CO2 gas conditions using a D-MEM liquid medium (containing high glucose and L-glutamine, Invitrogen Corporation) supplemented with a penicillin-streptomycin solution (Invitrogen Corporation, final concentration: 100 U/mL as benzylpenicillin; 100 μg/mL as streptomycin) as antibiotics, MEM non-essential amino acids (Invitrogen Corporation, final concentration: 0.1 mM), and fetal bovine serum (Moregate Biotech, final concentration: 10%), until reaching confluence.
The cells that reached confluence were dissociated with 0.05% trypsin/0.53 mM EDTA.4Na (Invitrogen Corporation) and resuspended in the liquid medium. The resuspended cells were diluted with the liquid medium so that the spread ratio became 1:4 to 1:8, and were cultured.
The cells that reached confluence were dissociated with 0.05% trypsin/0.53 mM EDTA.4Na and resuspended in a D-MEM liquid medium (containing high glucose and L-glutamine, Invitrogen Corporation) supplemented with MEM non-essential amino acids (final concentration: 0.1 mM) and fetal bovine serum (final concentration: 10%). This resuspended cell suspension was prepared with a liquid medium so as to become the number of cells 5×10^4 cells/100 μL of the liquid medium/well in each well of a poly-D-lysine-coated 96-well microplate (BD BioCoat (registered trademark), Nippon Becton Dickinson Co., Ltd.), and this cell preparation was dispensed at 100 μL to each well and seeded. After the seeding, the cells were cultured at 37° C. in an incubator under 5% CO2 gas conditions. The introduction of the rat EP1 expression vector was performed by procedures shown below at the point in time when the cells for introduction of this rat EP1 expression vector adhered (approximately 2 hours after the seeding).
Lipofectamine 2000 (Invitrogen Corporation) was used for the introduction of the rat EP1 expression vector. […]

SMILES	pIC50
Cc1ccc2c(Cc3cccc(C(=O)O)n3)c(-c3ccccc3)nn2c1 [Example 3-21, 6-[(6-Methyl-2-phenylpyrazolo[1,5-a]pyridin-3-yl)methyl]pyridine-2-carboxylic acid]	7.72
COc1ccc2c(Cc3cccc(C(=O)O)n3)c(-c3cccc(F)c3)nn2c1 [Example 12-53, 6-[[2-(3-Fluorophenyl)-6-methoxypyrazolo[1,5-a]pyridin-3-yl]methyl]pyridine-2-carboxylic acid]	8.54
Clc1ccc2c(Cc3cccc(-c4nnn[nH]4)n3)c(-c3ccccc3)nn2c1 [Example 28-1, 6-Chloro-2-phenyl-3-[[6-(1H-tetrazol-5-yl)pyridin-2-yl]methyl]pyrazolo[1,5-a]pyridine]	8.60
COc1ccc2c(Cc3cccc(C(=O)O)c3)c(-c3ccccc3)nn2c1 [Example 3-4, 3-[(6-Methoxy-2-phenylpyrazolo[1,5-a]pyridin-3-yl)methyl]benzoic acid]	7.96
CC1(c2nn3cc(Cl)ccc3c2Cc2cccc(C(=O)O)n2)CC1 [Example 12-36, 6-[[6-Chloro-2-(1-methylcyclopropyl)pyrazolo[1,5-a]pyridin-3-yl]methyl]pyridine-2-carboxylic acid]	6.80
O=C(O)c1cccc(Cc2c(N3CCCCC3)nn3cc(Cl)ccc23)n1 [Example 12-26, 6-[[6-Chloro-2-(piperidin-1-yl)pyrazolo[1,5-a]pyridin-3-yl]methyl]pyridine-2-carboxylic acid]	7.10
COc1ccc2c(Cc3cccc(-c4nnn[nH]4)n3)c(-c3ccccc3)nn2c1 [Example 2-1, 6-Methoxy-2-phenyl-3-[[6-(1H-tetrazol-5-yl)pyridin-2-yl]methyl]pyrazolo[1,5-a]pyridine]	7.25
O=C(O)c1cccc(Cc2c(-c3ccccc3)nn3cc(Br)ccc23)n1 [Example 3-14, 6-[(6-Bromo-2-phenylpyrazolo[1,5-a]pyridin-3-yl)methyl]pyridine-2-carboxylic acid]	7.96
S=c1[nH]c(-c2cccc(Cc3c(-c4ccccc4)nn4cc(Cl)ccc34)n2)no1 [Example 26-1]	7.15
CS(=O)(=O)NC(=O)c1cccc(Cc2c(-c3ccccc3)nn3cc(Cl)ccc23)n1 [Example 23-1, 6-[(6-Chloro-2-phenylpyrazolo[1,5-a]pyridin-3-yl)methyl]-N-(methylsulfonyl)pyridine-2-carboxamide]	7.21
COc1ccc2c(Cc3cccc(C(=O)O)n3)c(C(C)(C)C)nn2c1 [Example 3-15, 6-[(2-tert-Butyl-6-methoxypyrazolo[1,5-a]pyridin-3-yl)methyl]pyridine-2-carboxylic acid]	7.41
COc1ccc2c(Cc3ccc(C(=O)O)o3)c(-c3ccccc3)nn2c1 [Example 3-6, 5-[(6-Methoxy-2-phenylpyrazolo[1,5-a]pyridin-3-yl)methyl]furan-2-carboxylic acid]	7.22
O=c1[nH]c(-c2cccc(Cc3c(-c4ccccc4)nn4cc(Cl)ccc34)n2)no1 [Example 25-1]	7.34
CC(C)(C)c1nn2cc(Cl)ccc2c1Cc1cccc(C(=O)O)n1 [Example 12-23, 6-[(2-tert-Butyl-6-chloropyrazolo[1,5-a]pyridin-3-yl)methyl]pyridine-2-carboxylic acid]	7.32
COc1ccc2c(Cc3cccc(C(=O)O)n3)c(-c3ccccc3)nn2c1 [Example 3-5, 6-[(6-Methoxy-2-phenylpyrazolo[1,5-a]pyridin-3-yl)methyl]pyridine-2-carboxylic acid]	8.22
COc1ccc2c(Cc3cccc(C(=O)O)n3)c(-c3ccsc3)nn2c1 [Example 3-32, 6-[[6-Methoxy-2-(thiophen-3-yl)pyrazolo[1,5-a]pyridin-3-yl]methyl]pyridine-2-carboxylic acid]	7.37
C=Cc1ccc2c(Cc3cccc(C(=O)O)n3)c(-c3ccccc3)nn2c1 [Example 3-11, 6-[(2-Phenyl-6-vinylpyrazolo[1,5-a]pyridin-3-yl)methyl]pyridine-2-carboxylic acid]	7.68
CSc1ccc2c(Cc3cccc(C(=O)O)n3)c(-c3ccccc3)nn2c1 [Example 12-17, 6-[[6-(Methylthio)-2-phenylpyrazolo[1,5-a]pyridin-3-yl]methyl]pyridine-2-carboxylic acid]	7.06
O=C(O)c1cccc(Cc2c(-c3ccccc3)nn3cc(Cl)ccc23)c1 [Example 3-2, 3-[(6-Chloro-2-phenylpyrazolo[1,5-a]pyridin-3-yl)methyl]benzoic acid]	7.54
COc1ccc2c(Cc3cccc(C(=O)O)n3)c(C3CCCC3)nn2c1 [Example 3-18, 6-[(2-Cyclopentyl-6-methoxypyrazolo[1,5-a]pyridin-3-yl)methyl]pyridine-2-carboxylic acid]	6.77
O=C(O)c1cccc(Cc2c(-c3ccccc3)nn3cc(C(F)(F)F)ccc23)n1 [Example 3-22, 6-[[2-Phenyl-6-(trifluoromethyl)pyrazolo[1,5-a]pyridin-3-yl]methyl]pyridine-2-carboxylic acid]	7.72
COc1ccc2c(Cc3cccc(C(=O)O)n3)c(-c3ccc(F)cc3)nn2c1 [Example 3-24, 6-[[2-(4-Fluorophenyl)-6-methoxypyrazolo[1,5-a]pyridin-3-yl]methyl]pyridine-2-carboxylic acid]	7.80
O=C(O)c1csc(Cc2c(-c3ccccc3)nn3cc(Cl)ccc23)n1 [Example 12-7]	6.96
O=C(O)c1cccc(Cc2c(-c3cccc(F)c3)nn3cc(Cl)ccc23)n1 [Example 12-38, 6-[[6-Chloro-2-(3-fluorophenyl)pyrazolo[1,5-a]pyridin-3-yl]methyl]pyridine-2-carboxylic acid]	7.41
